For 30 molecules, IC50 results are on record in US8592629B2, “Sulfonamide derivatives as Nav 1.7 inhibitors” (Pfizer Limited, priority 2010, dated 2013).

The structures appear in SMILES notation.

By IC50 is commonly meant the concentration that inhibits the measured activity by half.

For the assay, the target named is T1, Nav1.7 (or SCN9A) channel (Homo sapiens, UniProt Q15858).
T1 construct: expressed in transfected cells
The assay is described as follows: Nav1.7 (hSCN9A) block in HEK cells, PatchXpress 7000 automated electrophysiology, estimated IC50 (EIC50). It is filed as cell-based. The following applies: PatchXpress assay; HEK cells stably transfected with hSCN9A, voltage-clamped at V1/2 of inactivation. On the procedure: The ability of the compounds of formula (I) to block the Nav1.7 (or SCN9A) channel were measured using the assay described below.
Human Embryonic Kidney (HEK) cells were transfected with an hSCN9A construct using lipofectamine reagent (Invitrogen), using standard techniques. Cells stably expressing the hSCN9A constructs were identified by their resistance to G-418 (400 μg/ml). Clones were screened for expression using the whole-cell voltage-clamp technique.
HEK cells stably transfected with hSCN9A were maintained in DMEM medium supplemented with 10% heat-inactivated fetal bovine serum and 400 μg/ml G-418 in an incubator at 37° C. with a humidified atmosphere of 10% CO2. For HTS, cells were harvested from flasks by trypsinization and replated in an appropriate multi-well plate (typically 96 or 384 wells/plate) such that confluence would be achieved within 24 hours of plating. For electrophysiological studies, cells were removed from the culture flask by brief trypsinization and re-plated at low density onto glass cover slips. Cells were typically used for electrophysiological experiments within 24 to 72 hours after plating.
HEK cells stably transfected with hSCN9A were viewed under Hoffman contrast optics and placed in front of an array of flow pipes emitting either control or compound-containing extracellular solutions. All compounds were dissolved in dimethyl sulfoxide to make 10 mM stock solutions, which were then diluted into extracellular solution to attain the final concentrations desired. […] The voltage-dependence of inactivation was determined by applying a series of depolarizing prepulses (8 sec long in 10 mV increments) from a negative holding potential. The voltage was then immediately stepped to 0 mV to assess the magnitude of the sodium current. Currents elicited at 0 mV were plotted as a function of prepulse potential to allow estimation of the voltage at which 50% of the channels were inactivated (midpoint of inactivation or V1/2). Compounds were tested for their ability to inhibit hSCN9A sodium channels by activating the channel with a 20 msec voltage step to 0 mV following an 8 second conditioning prepulse to the empirically determined V1/2. Compound effect (% inhibition) was determined by difference in current amplitude before and after application of test compounds. For ease of comparison, “estimated IC-50” (EIC50) values were calculated from single point electrophysiology data by the following equation, (tested concentration, uM) X (100-% inhibition/% inhibition). Inhibition values <20% and >80% were excluded from the calculation.
Electrophysiological assays were conducted with PatchXpress 7000 hardware and associated software (Molecular Devices Corp). All assay buffers and solutions were identical to those used in conventional whole-cell voltage clamp experiments described above. hSCN9A cells were grown as above to 50%-80% confluency and harvested by trypsinization. Trypsinized cells were washed and resuspended in extracellular buffer at a concentration of 1×10^6 cells/ml. The onboard liquid handling facility of the PatchXpress was used for dispensing cells and application of test compounds. Determination of the voltage midpoint of inactivation was as described for conventional whole-cell recordings. Cells were then voltage-clamped to the empirically determined V1/2 and current was activated by a 20 msec voltage step to 0 mV.
Compounds of the Examples were tested in the assays described above and found to have the Nav1.7 EIC50 (μM) values specified in the table below. All data are derived from the PatchXpress assay unless explicitly stated otherwise.

T1 sequence (Q15858 whole entry): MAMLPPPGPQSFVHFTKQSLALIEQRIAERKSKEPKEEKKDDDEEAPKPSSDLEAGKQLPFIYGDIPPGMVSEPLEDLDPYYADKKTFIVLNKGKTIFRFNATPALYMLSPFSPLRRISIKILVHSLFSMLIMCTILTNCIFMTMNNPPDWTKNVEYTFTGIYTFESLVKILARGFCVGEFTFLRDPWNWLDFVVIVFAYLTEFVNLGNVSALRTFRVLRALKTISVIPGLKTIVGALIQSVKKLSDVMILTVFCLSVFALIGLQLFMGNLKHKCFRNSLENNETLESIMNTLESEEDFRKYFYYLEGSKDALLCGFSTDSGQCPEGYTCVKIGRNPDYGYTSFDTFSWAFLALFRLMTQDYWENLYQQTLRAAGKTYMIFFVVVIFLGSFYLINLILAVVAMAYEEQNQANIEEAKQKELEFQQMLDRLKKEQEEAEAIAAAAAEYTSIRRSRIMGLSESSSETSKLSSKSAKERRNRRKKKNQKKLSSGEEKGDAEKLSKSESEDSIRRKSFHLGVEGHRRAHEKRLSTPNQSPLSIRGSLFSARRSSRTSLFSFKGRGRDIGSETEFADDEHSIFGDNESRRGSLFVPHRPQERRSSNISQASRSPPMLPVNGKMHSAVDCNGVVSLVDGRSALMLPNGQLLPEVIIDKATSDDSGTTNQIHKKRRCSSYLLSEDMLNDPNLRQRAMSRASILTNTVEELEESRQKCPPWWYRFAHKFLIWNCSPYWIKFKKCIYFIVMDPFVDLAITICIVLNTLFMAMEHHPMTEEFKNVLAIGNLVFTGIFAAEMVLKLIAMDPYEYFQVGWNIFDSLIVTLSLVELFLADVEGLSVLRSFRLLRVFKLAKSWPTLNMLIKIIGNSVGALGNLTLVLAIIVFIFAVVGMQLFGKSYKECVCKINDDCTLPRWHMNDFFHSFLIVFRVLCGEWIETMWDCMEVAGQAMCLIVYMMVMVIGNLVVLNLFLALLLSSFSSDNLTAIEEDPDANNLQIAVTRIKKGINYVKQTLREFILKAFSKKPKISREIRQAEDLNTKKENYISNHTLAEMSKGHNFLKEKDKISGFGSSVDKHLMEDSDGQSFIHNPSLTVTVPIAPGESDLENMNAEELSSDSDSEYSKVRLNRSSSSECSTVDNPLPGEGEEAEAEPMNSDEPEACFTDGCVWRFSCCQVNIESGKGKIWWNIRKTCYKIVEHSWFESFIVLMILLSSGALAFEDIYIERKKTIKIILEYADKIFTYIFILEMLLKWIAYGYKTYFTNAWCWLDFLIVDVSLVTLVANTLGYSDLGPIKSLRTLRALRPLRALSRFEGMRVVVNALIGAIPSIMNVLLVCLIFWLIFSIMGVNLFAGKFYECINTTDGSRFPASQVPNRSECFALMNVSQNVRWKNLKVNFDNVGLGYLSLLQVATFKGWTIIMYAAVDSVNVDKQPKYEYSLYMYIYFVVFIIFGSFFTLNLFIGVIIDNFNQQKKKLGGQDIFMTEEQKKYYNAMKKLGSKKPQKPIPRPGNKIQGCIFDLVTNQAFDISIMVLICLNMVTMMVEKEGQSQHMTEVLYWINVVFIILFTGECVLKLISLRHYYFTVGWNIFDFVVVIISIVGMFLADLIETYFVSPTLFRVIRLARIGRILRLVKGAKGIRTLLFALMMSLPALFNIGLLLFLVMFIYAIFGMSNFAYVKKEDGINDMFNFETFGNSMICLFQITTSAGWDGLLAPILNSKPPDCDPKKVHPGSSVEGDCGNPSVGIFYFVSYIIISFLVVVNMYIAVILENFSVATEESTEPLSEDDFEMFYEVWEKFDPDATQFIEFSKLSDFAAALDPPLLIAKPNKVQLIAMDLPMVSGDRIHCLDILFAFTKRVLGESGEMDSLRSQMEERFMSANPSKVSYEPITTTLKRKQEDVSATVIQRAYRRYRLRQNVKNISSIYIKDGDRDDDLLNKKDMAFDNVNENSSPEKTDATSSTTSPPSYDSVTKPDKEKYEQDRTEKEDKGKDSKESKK

As to `CC(C)(F)COc1ncc(Oc2cc(F)c(C(=O)NS(C)(=O)=O)cc2F)cc1Cl` [Example 63, 4-{[5-chloro-6-(2-fluoro-2-methylpropoxy)pyridin-3-yl]oxy}-2,5-difluoro-N-(methylsulfonyl)benzamide], the IC50 was 160 nM. For `CS(=O)(=O)NC(=O)c1cc(F)c(Oc2cnc(OCC(F)(F)C(F)(F)F)c(Cl)c2)cc1F` [Example 64, 4-{[5-chloro-6-(2,2,3,3,3-pentafluoropropoxy)pyridin-3-yl]oxy}-2,5-difluoro-N-(methylsulfonyl)benzamide] the value was 28 nM; for `CS(=O)(=O)NC(=O)c1cc(F)c(Oc2cnc(OC3CCC(F)(F)CC3)c(Cl)c2)cc1F` [Example 65, 4-({5-chloro-6-[(4,4-difluorocyclohexyl)oxy]pyridin-3-yl}oxy)-2,5-difluoro-N-(methylsulfonyl)benzamide], 650 nM; for `CS(=O)(=O)NC(=O)c1cc(F)c(Oc2cnc(OCC(F)F)c(Cl)c2)cc1F` [Example 66, 4-{[5-chloro-6-(2,2-difluoroethoxy)pyridin-3-yl]oxy}-2,5-difluoro-N-(methylsulfonyl)benzamide], 650 nM. As for `CN1CCC(Oc2ncc(Oc3cc(F)c(C(=O)NS(C)(=O)=O)cc3F)cc2Cl)CC1` [Example 67, 4-({5-chloro-6-[(1-methylpiperidin-4-yl)oxy]pyridin-3-yl}oxy)-2,5-difluoro-N-(methylsulfonyl)benzamide], the IC50 was 9900 nM.

As for `CS(=O)(=O)NC(=O)c1cc(F)c(Oc2cnc(C(F)(F)F)c(Cl)c2)cc1F` [Example 68, 4-{[5-chloro-6-(trifluoromethyl)pyridin-3-yl]oxy}-2,5-difluoro-N-(methylsulfonyl)benzamide], the IC50 is 1800 nM.

For the molecule `COc1cc(C(=O)NS(C)(=O)=O)ccc1Oc1cnc(OC(C)C)c(Cl)c1` [Example 69, 4-[(5-chloro-6-isopropoxypyridin-3-yl)oxy]-3-methoxy-N-(methylsulfonyl)benzamide], the IC50 is 250 nM.

Turning to `CC(C)Oc1ncc(Oc2cc(F)c(C(=O)NS(C)(=O)=O)cc2F)cc1F` [Example 71, 2,5-difluoro-4-[(5-fluoro-6-isopropoxypyridin-3-yl)oxy]-N-(methylsulfonyl)benzamide], the IC50 is 1700 nM.

As for `COc1c(F)c(Oc2cnc(OC(C)C)c(Cl)c2)cc(F)c1C(=O)NS(C)(=O)=O` [Example 72, 4-[(5-chloro-6-isopropoxypyridin-3-yl)oxy]-3,6-difluoro-2-methoxy-N-(methylsulfonyl)benzamide], the half-inhibitory concentration (IC50) is greater than 1000 nM. For `CC(C)Oc1ncc(Oc2ccc(C(=O)NS(C)(=O)=O)cc2C#N)cc1Cl` [Example 73, 4-[(5-chloro-6-isopropoxypyridin-3-yl)oxy]-3-cyano-N-(methylsulfonyl)benzamide] the value was 620 nM; for `CC(C)COc1ncc(Oc2ccc(C(=O)NS(C)(=O)=O)c(F)c2)cc1Cl` [Example 74, 4-[(5-chloro-6-isobutoxypyridin-3-yl)oxy]-2-fluoro-N-(methylsulfonyl)benzamide], 50 nM; for `CC(C)(Oc1ncc(Oc2cc(F)c(C(=O)NS(C)(=O)=O)cc2Cl)cc1Cl)C(F)(F)F` [Example 76, 5-chloro-4-{[5-chloro-6-(2,2,2-trifluoro-1,1-dimethylethoxy)pyridin-3-yl]oxy}-2-fluoro-N-(methylsulfonyl)benzamide], 9.4 nM. With `CS(=O)(=O)NC(=O)c1cc(Cl)c(Oc2cnc(OC(C(F)(F)F)C(F)(F)F)c(Cl)c2)cc1F` [Example 77, 5-chloro-4-({5-chloro-6-[2,2,2-trifluoro-1-(trifluoromethyl)ethoxy]pyridin-3-yl}oxy)-2-fluoro-N-(methylsulfonyl)benzamide] the figure was 15 nM. For `CC(C)Nc1ncc(Oc2cc(F)c(C(=O)NS(C)(=O)=O)cc2F)cc1Cl` [Example 79, 4-{[5-chloro-6-(isopropylamino)pyridin-3-yl]oxy}-2,5-difluoro-N-(methylsulfonyl)benzamide] the value was 150 nM.

With `CS(=O)(=O)NC(=O)c1cc(F)c(Oc2cnc(OC(CF)CF)c(Cl)c2)cc1F` [Example 80, 4-({5-chloro-6-[2-fluoro-1-(fluoromethyl)ethoxy]pyridin-3-yl}oxy)-2,5-difluoro-N-(methylsulfonyl)benzamide], the half-maximal inhibitory concentration (IC50) is 1500 nM. For `CC(C)Oc1ncc(Oc2ccc(C(=O)NS(C)(=O)=O)cc2Cl)cc1Cl` [Example 82, 3-chloro-4-[(5-chloro-6-isopropoxypyridin-3-yl)oxy]-N-(methylsulfonyl)benzamide] the value was 42 nM; for `COc1ncc(Oc2ccc(C(=O)NS(C)(=O)=O)cc2Cl)cc1Cl` [Example 83, 3-chloro-4-[(5-chloro-6-methoxypyridin-3-yl)oxy]-N-(methylsulfonyl)benzamide], greater than 10000 nM; for `CC(C)Oc1ncc(Oc2ccc(C(=O)NS(C)(=O)=O)cc2)cc1Cl` [Example 84, 4-[(5-chloro-6-isopropoxypyridin-3-yl)oxy]-N-(methylsulfonyl)benzamide], 850 nM.

On to `COc1ncc(Oc2ccc(C(=O)NS(C)(=O)=O)cc2)cc1Cl` [Example 85, 4-[(5-chloro-6-methoxypyridin-3-yl)oxy]-N-(methylsulfonyl)benzamide], for which the IC50 was greater than 10000 nM. Regarding `COc1cc(Oc2cnc(OC(C)C)c(Cl)c2)ccc1C(=O)NS(C)(=O)=O` [Example 86, 4-[(5-chloro-6-isopropoxypyridin-3-yl)oxy]-2-methoxy-N-(methylsulfonyl)benzamide], the IC50 is 7200 nM. Consider `CS(=O)(=O)NC(=O)c1cc(F)c(Oc2ccc(Cl)c3cccnc23)cc1F` [Example 87, 4-[(5-chloroquinolin-8-yl)oxy]-2,5-difluoro-N-(methylsulfonyl)benzamide], for which the IC50 is greater than 3000 nM. With `CS(=O)(=O)NC(=O)c1cc(F)c(Oc2cc(Cl)cc3cccnc23)cc1F` [Example 88, 4-[(6-chloroquinolin-8-yl)oxy]-2,5-difluoro-N-(methylsulfonyl)benzamide] the figure was greater than 3000 nM; with `COc1ccncc1Oc1cc(F)c(C(=O)NS(C)(=O)=O)cc1F` [Example 89, 2,5-difluoro-4-(4-methoxypyridin-3-yloxy)-N-(methylsulfonyl)benzamide], greater than 3000 nM. For `CS(=O)(=O)NC(=O)c1cc(F)c(Oc2cccn3ccnc23)cc1F` [Example 90, 2,5-difluoro-4-(imidazo[1,2-a]pyridin-8-yloxy)-N-(methylsulfonyl)benzamide] the value was greater than 3000 nM; for `CS(=O)(=O)NC(=O)c1cc(Cl)c(Oc2cnc(C3CC3)c(Cl)c2)cc1Cl` [Example 91, 2,5-Dichloro-4-(5-chloro-6-cyclopropylpyridin-3-yloxy)-N-(methylsulfonyl)benzamide], 680 nM; for `O=C(NS(=O)(=O)C1CC1)c1cc(Cl)c(Oc2cnc(C3CC3)c(Cl)c2)cc1F` [Example 92, 5-chloro-4-(5-chloro-6-cyclopropylpyridin-3-yloxy)-N-(cyclopropylsulfonyl)-2-fluorobenzamide], 50 nM. For `CS(=O)(=O)NC(=O)c1cc(Cl)c(Cc2cnc(C3CC3)c(Cl)c2)cc1F` [Example 93, 5-chloro-4-((5-chloro-6-cyclopropylpyridin-3-yl)methyl)-2-fluoro-N-(methylsulfonyl)benzamide] the value was 470 nM. As to `CC(C)Oc1ncc(Sc2cc(F)c(C(=O)NS(C)(=O)=O)cc2Cl)cc1Cl` [Example 94, 5-chloro-4-[(5-chloro-6-isopropoxypyridin-3-yl)thio]-2-fluoro-N-(methylsulfonyl)benzamide], the 50% inhibitory concentration (IC50) is 830 nM. With `CS(=O)(=O)NC(=O)c1cc(Cl)c(Oc2cnc(N3CCC(F)(F)C3)c(Cl)c2)cc1F` [Example 95, 5-chloro-4-(5-chloro-6-(3,3-difluoropyrrolidin-1-yl)pyridin-3-yloxy)-2-fluoro-N-(methylsulfonyl)benzamide] the figure was 37 nM; with `CS(=O)(=O)NC(=O)c1cc(Cl)c(Oc2cnc(N3CC(F)(F)C3)c(Cl)c2)cc1F` [Example 96, 5-Chloro-4-(5-chloro-6-(3,3-difluoroazetidin-1-yl)pyridin-3-yloxy)-2-fluoro-N-(methylsulfonyl)benzamide], 73 nM.
